Laboratory results from patent US20090220598A1, “Stable Oral Pharmaceutical Composition Containing Thyroid Hormone Receptor Agonists” (priority 2006, published 2009).
Blank lines part the entries; values can stand above or below the compound they belong to.

Tests used:
[1] = Inhibition of nitration of compound 1A in the presence of nitrite by antioxidant inhibitor agents; assay type: physicochemical; conditions: for Nitration (%) of 1A with inhibiting agent: 1A 50 μM, NaNO2 100 μM; for inhibition of the nitrite-mediated nitration of 1A: pH and nitrite concentration that give almost total conversion to the nitro reaction product
Procedure: (§1) It is known that L-tyrosine can be converted to a nitro reaction product in which the NO2 group is substituted ortho to the ring hydroxyl group. The experimental procedure for determining the extent of nitration of L-tyrosine was used for determining the nitration of compound 1A and the inhibition thereof by selected antioxidants. The experimental procedure for L-tyrosine is known (1998, Chem. Res. Toxicol., 11, 1578). In brief, solutions of compound 1A (50 μM) were exposed to solutions of NaNO3 (2500 μM) and/or NaNO2 (various concentrations) at various pH values, at 37° C. and in the presence or absence of phosphate buffer. The nitration reaction leads to the formation of the 5′-nitro reaction product of compound 1A. This reaction product can be detected and quantified using HPLC, the reaction product having a reduced retention time (under the conditions used) compared to the parent compound. Antioxidant inhibitors were then added to NaNO2— and 1A-containing test solutions and the nitration tests repeated.
On addition of selected antioxidant inhibiting agents to compound 1A in the presence of nitrite, the results of Table 2 were achieved. The amount of antioxidant used was generally around 10-20 times the amount of compound 1A.

[2] = Clinical testing: nitrated reaction product after compound 1A as solution or enteric coated tablets; assay type: in vivo, human; conditions: solution, single dose, clinically relevant dosages
Excerpt: Clinically relevant dosages of compound 1A were given to human subjects in the form of a solution in a single dose.

[3] = Nitration of compound 1A in the presence of nitrite and/or nitrate at various pH (HPLC-MS/MS); assay type: physicochemical; conditions: 1A 50 μM
Procedure: as §1
Analysis was by HPLC-MS/MS, with the following conditions: […]

[4] = In vivo nitration study in rats; conditions: given with nitrate and nitrite solution (54 mg and 4 mg per rat)

Compound: Cc1cc(C(C)(C)C)c(O)c(C(C)(C)C)c1 [BHT, butylated hydroxytoluene]
- Nitration (%) of 1A with inhibiting agent ([1]; pH 2 (HCl), 24 hr): 0.02%
- inhibition of the nitrite-mediated nitration of 1A [1]: essentially complete inhibition

Compound: O=C1O[C@H]([C@@H](O)CO)C([O-])=C1O.[Na+] [Sodium ascorbate]
- Nitration (%) of 1A with inhibiting agent ([1]; pH 2 (HCl), 4 hr): 0.00%
- Nitration (%) of 1A with inhibiting agent ([1]; pH 2 (phosphate), 4 hr): 0.00%
- Nitration (%) of 1A with inhibiting agent ([1]; pH 6.4, 4 hr): 0.00%
- Nitration (%) of 1A with inhibiting agent ([1]; pH 7.2, 4 hr): 0.00%
- inhibition of the nitrite-mediated nitration of 1A [1]: essentially complete inhibition

Compound: O=S([O-])O.[Na+] [Sodium bisulfite]
- Nitration (%) of 1A with inhibiting agent ([1]; pH 2 (HCl), 0 hr): 0.77%
- Nitration (%) of 1A with inhibiting agent ([1]; pH 2 (HCl), 2 hr): 0.11%
- Nitration (%) of 1A with inhibiting agent ([1]; pH 2 (phosphate), 0 hr): 0.11%
- Nitration (%) of 1A with inhibiting agent ([1]; pH 2 (phosphate), 2 hr): 0.16%
- Nitration (%) of 1A with inhibiting agent ([1]; pH 2 (phosphate), 4 hr): 0.17%
- Nitration (%) of 1A with inhibiting agent ([1]; pH 6.4 (NaAc), 2 hr): 0%
- Nitration (%) of 1A with inhibiting agent ([1]; pH 6.4 (NaAc), 4 hr): 0%
- Nitration (%) of 1A with inhibiting agent ([1]; pH 6.4 (phosphate), 2 hr): 0%
- Nitration (%) of 1A with inhibiting agent ([1]; pH 6.4 (phosphate), 4 hr): 0%

Compound: Catechin
- Nitration (%) of 1A with inhibiting agent ([1]; pH 2 (HCl), 4 hr): 0.01%
- Nitration (%) of 1A with inhibiting agent ([1]; pH 2 (HCl), 24 hr): 0.02%
- Nitration (%) of 1A with inhibiting agent ([1]; pH 2 (phosphate), 4 hr): 0.01%
- Nitration (%) of 1A with inhibiting agent ([1]; pH 2 (phosphate), 24 hr): 0%
- Nitration (%) of 1A with inhibiting agent ([1]; pH 6.4 (NaAc), 4 hr): 0%
- Nitration (%) of 1A with inhibiting agent ([1]; pH 6.4 (NaAc), 24 hr): 0%
- Nitration (%) of 1A with inhibiting agent ([1]; pH 6.4 (phosphate), 4 hr): 0%
- Nitration (%) of 1A with inhibiting agent ([1]; pH 6.4 (phosphate), 24 hr): 0%

- Nitration (%) ([3]; NaNO2 100 μM, no NaNO3, pH 2 (HCl), 4 hr): 98.6%
- Nitration (%) ([3]; NaNO2 100 μM, no NaNO3, pH 2 (phosphate), 4 hr): 4.27%
- Nitration (%) ([3]; NaNO2 100 μM, no NaNO3, pH 6.4, 4 hr): 0.013%
- Nitration (%) ([3]; NaNO2 100 μM, no NaNO3, pH 7.2, 4 hr): 0%
- Nitration (%) ([3]; NaNO2 100 μM, no inhibiting agent, pH 6.4, 24 hr): 0.02%
- Nitration (%) ([3]; NaNO2 400 μM, no inhibiting agent, pH 6.4, 24 hr): 0.12%
- Nitration (%) ([3]; NaNO2 800 μM, no inhibiting agent, pH 6.4, 24 hr): 0.21%
- Nitration (%) ([3]; NaNO3 2500 μM, NaNO2 100 μM, pH 2 (HCl), 4 hr): 8.4%
- Nitration (%) ([3]; NaNO3 2500 μM, NaNO2 100 μM, pH 2 (phosphate), 4 hr): 9.63%
- Nitration (%) ([3]; NaNO3 2500 μM, NaNO2 100 μM, pH 6.4, 4 hr): 0.017%
- Nitration (%) ([3]; NaNO3 2500 μM, NaNO2 100 μM, pH 7.2, 4 hr): 0%
- Nitration (%) ([3]; NaNO3 2500 μM, no NaNO2, pH 2 (HCl), 4 hr): 0%
- Nitration (%) ([3]; NaNO3 2500 μM, no NaNO2, pH 2 (phosphate), 4 hr): 0%
- Nitration (%) ([3]; NaNO3 2500 μM, no NaNO2, pH 6.4, 4 hr): 0%
- Nitration (%) ([3]; NaNO3 2500 μM, no NaNO2, pH 7.2, 4 hr): 0%
- Nitration (%) ([3]; no NaNO3, no NaNO2, pH 2 (HCl), 24 hr): 0%
- Nitration (%) ([3]; no NaNO3, no NaNO2, pH 2 (phosphate), 24 hr): 0%
- Nitration (%) ([3]; no NaNO3, no NaNO2, pH 6.4, 24 hr): 0%
- Nitration (%) ([3]; no NaNO3, no NaNO2, pH 7.2, 24 hr): 0%
- administered dose nitrated [4]: around 6%
Compound: CC(C)c1cc(Oc2c(Br)cc(NC(=O)CC(=O)O)cc2Br)ccc1O [compound 1A, 3-[[3,5-Dibromo-4-[4-hydroxy-3-(1-methylethyl)-phenoxy]-phenyl]-amino]-3-oxopropanoic acid]
- nitrated reaction product in human subjects [2]: detected in a significant number of the subjects
